{
  "source": "ChEMBL document CHEMBL4138231",
  "about": "(Eur J Med Chem, 2018)",
  "key": {"[1]": {"biological_target": "Serine/threonine-protein kinase PLK2 (Homo sapiens, UniProt Q9NYY3)", "sequence (Q9NYY3 whole entry)": "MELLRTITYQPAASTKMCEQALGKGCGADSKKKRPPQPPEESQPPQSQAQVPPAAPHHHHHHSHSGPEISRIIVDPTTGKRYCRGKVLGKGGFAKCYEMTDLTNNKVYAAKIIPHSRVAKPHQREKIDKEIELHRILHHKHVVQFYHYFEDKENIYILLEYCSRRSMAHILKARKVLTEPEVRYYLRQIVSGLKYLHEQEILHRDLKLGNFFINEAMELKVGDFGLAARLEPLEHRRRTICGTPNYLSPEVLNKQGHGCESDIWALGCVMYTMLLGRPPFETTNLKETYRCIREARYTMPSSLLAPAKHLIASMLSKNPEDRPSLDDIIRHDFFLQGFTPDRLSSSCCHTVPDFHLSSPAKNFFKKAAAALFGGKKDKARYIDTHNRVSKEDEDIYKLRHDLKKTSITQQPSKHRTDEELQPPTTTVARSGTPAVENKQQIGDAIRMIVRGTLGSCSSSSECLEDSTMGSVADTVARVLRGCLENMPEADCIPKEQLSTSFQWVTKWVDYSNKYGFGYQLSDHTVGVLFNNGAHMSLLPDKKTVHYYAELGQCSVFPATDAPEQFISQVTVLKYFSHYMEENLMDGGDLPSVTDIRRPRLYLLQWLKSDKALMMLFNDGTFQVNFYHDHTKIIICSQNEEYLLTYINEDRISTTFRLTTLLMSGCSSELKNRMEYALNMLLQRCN", "assay": "Inhibition human recombinant full length GST-tagged Plk2 expressed in baculovirus expression system after 1 hr by FRET-based Z'-Lyte assay"}, "[2]": {"tested_on": "HeLa", "assay": "Antiproliferative activity against human HeLa cells after 72 hrs by CCK8 assay", "type": "functional"}, "[3]": {"tested_on": "MCF7", "assay": "Antiproliferative activity against human MCF7 cells after 72 hrs by CCK8 assay", "type": "functional", "conditions": "MCF7, 72 h"}, "[4]": {"tested_on": "K562", "assay": "Antiproliferative activity against human K562 cells after 72 hrs by CCK8 assay", "type": "functional", "conditions": "K562, 72 h"}, "[5]": {"biological_target": "Serine/threonine-protein kinase PLK3 (Homo sapiens, UniProt Q9H4B4)", "sequence (Q9H4B4 whole entry, the tested form may be a part)": "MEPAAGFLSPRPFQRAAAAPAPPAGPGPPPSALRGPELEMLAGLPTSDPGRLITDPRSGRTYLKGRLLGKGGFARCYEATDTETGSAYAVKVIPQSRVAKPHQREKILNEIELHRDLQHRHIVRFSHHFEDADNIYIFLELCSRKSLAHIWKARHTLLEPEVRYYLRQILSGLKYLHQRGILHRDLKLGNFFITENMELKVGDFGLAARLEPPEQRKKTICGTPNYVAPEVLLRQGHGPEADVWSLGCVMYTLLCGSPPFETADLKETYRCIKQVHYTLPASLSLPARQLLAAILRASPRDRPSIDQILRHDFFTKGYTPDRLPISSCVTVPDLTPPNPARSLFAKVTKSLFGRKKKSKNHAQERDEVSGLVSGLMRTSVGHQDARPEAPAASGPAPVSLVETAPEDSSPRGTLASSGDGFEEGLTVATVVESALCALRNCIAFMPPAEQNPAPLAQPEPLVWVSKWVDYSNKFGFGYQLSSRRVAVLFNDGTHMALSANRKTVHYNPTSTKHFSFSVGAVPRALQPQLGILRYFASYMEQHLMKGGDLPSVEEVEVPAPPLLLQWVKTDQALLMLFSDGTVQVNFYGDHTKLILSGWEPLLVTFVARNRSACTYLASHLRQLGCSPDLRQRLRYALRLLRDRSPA", "assay": "Inhibition human recombinant GST-tagged Plk3 catalytic domain (58 to 340 residues) expressed in baculovirus expression system after 1 hr by FRET-based Z'-Lyte assay"}, "[6]": {"tested_on": "NCI-H1975", "assay": "Antiproliferative activity against human NCI-H1975 cells after 72 hrs by CCK8 assay", "type": "functional"}, "[7]": {"biological_target": "Serine/threonine-protein kinase PLK1 (Homo sapiens, UniProt P53350)", "sequence (P53350 whole entry)": "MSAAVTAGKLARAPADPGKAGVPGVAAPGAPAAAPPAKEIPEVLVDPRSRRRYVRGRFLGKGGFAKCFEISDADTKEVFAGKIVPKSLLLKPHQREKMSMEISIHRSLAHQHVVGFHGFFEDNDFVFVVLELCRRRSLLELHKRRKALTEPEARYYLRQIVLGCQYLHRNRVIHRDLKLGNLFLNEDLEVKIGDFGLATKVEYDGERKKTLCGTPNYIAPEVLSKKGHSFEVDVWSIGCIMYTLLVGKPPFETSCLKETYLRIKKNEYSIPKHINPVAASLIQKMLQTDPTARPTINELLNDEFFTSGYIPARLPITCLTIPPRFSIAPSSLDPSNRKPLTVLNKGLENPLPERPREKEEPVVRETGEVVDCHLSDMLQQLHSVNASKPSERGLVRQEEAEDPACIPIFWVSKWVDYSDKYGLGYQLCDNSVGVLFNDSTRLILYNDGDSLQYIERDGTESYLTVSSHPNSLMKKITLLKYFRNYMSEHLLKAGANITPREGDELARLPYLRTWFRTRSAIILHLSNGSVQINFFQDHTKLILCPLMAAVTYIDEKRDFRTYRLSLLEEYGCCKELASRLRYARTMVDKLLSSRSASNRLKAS", "assay": "Inhibition human recombinant full length His-tagged Plk1 expressed in baculovirus expression system after 1 hr by FRET-based Z'-Lyte assay"}, "[8]": {"tested_on": "A549", "assay": "Antiproliferative activity against human A549 cells after 72 hrs by CCK8 assay", "type": "functional"}, "[9]": {"tested_on": "Huh-7", "assay": "Antiproliferative activity against human HuH7 cells after 72 hrs by CCK8 assay", "type": "functional"}},
  "note": "Calls of active or inactive are those of the source. No cut-off for these calls is given here.",
  "data": [
    {"compound": "CCC1C(=O)N(C)c2cnc(-n3ccc4cc(F)ccc43)nc2N1c1ccn(C)n1", "note": "(racemic)", "values": [
      {"measurement": "IC50", "setting": "[1]", "value": 1500, "unit": "nM"},
      {"measurement": "GI50", "setting": "[2]", "value": "inactive"},
      {"measurement": "GI50", "setting": "[3]", "value": 24.7, "unit": "µM"},
      {"measurement": "GI50", "setting": "[4]", "value": 6.07, "unit": "µM"},
      {"measurement": "IC50", "setting": "[5]", "value": "> 10", "unit": "µM"},
      {"measurement": "GI50", "setting": "[6]; NCI-H1975, 72 h", "value": 28.6, "unit": "µM"},
      {"measurement": "IC50", "setting": "[7]", "value": "> 10", "unit": "µM"},
      {"measurement": "GI50", "setting": "[8]", "value": "inactive"},
      {"measurement": "GI50", "setting": "[9]", "value": "inactive"}
    ]},
    {"compound": "CCNC(=O)c1ccc2c(ccn2-c2ncc3c(n2)N(c2ccn(C)n2)C(CC)C(=O)N3C)c1", "note": "(racemic)", "values": [
      {"measurement": "IC50", "setting": "[1]", "value": 243, "unit": "nM"},
      {"measurement": "GI50", "setting": "[2]", "value": 11.1, "unit": "µM"},
      {"measurement": "GI50", "setting": "[3]", "value": 13.2, "unit": "µM"},
      {"measurement": "GI50", "setting": "[4]", "value": 12.8, "unit": "µM"},
      {"measurement": "IC50", "setting": "[5]", "value": "> 10", "unit": "µM"},
      {"measurement": "GI50", "setting": "[6]", "value": "inactive"},
      {"measurement": "GI50", "setting": "[8]; A549, 72 h", "value": 21.7, "unit": "µM"},
      {"measurement": "GI50", "setting": "[9]; Huh-7, 72 h", "value": 20.3, "unit": "µM"}
    ]}
  ]
}
